# Publication PMC12454493, “Insight on novel sulfamoylphenyl pyrazole derivatives as anticancer carbonic anhydrase inhibitors” (Molecular Diversity, 2024)
# Columns and labels:
# MDA-MB-435 = test: NCI-60 one-dose SRB screen (Melanoma); type: cell-based; details: Homo sapiens, single dose 10 µM, 48 h, read-out: Growth inhibition percent (GI %)
# M14 = test: NCI-60 one-dose SRB screen (Melanoma); type: cell-based; details: Homo sapiens, single dose 10 µM, 48 h, read-out: Growth inhibition percent (GI %)
# SK-MEL-5 = test: NCI-60 one-dose SRB screen (Melanoma); type: cell-based; details: Homo sapiens, single dose 10 µM, 48 h, read-out: Growth inhibition percent (GI %)
# SK-MEL-2 = test: NCI-60 one-dose SRB screen (Melanoma); type: cell-based; details: Homo sapiens, single dose 10 µM, 48 h, read-out: Growth inhibition percent (GI %)
# UACC-257 = test: NCI-60 one-dose SRB screen (Melanoma); type: cell-based; details: Homo sapiens, single dose 10 µM, 48 h, read-out: Growth inhibition percent (GI %)
# SK-MEL-28 = test: NCI-60 one-dose SRB screen (Melanoma); type: cell-based; details: Homo sapiens, single dose 10 µM, 48 h, read-out: Growth inhibition percent (GI %)
# MALME-3M = test: NCI-60 one-dose SRB screen (Melanoma); type: cell-based; details: Homo sapiens, single dose 10 µM, 48 h, read-out: Growth inhibition percent (GI %)
# UACC-62 = test: NCI-60 one-dose SRB screen (Melanoma); type: cell-based; details: Homo sapiens, single dose 10 µM, 48 h, read-out: Growth inhibition percent (GI %)
# hCA IX = hCA IX (Homo sapiens, UniProt Q16790); test: CA inhibitory activity, spectrophotometric p-NPA assay; type: biochemical; details: p-NPA substrate, pH 7.5, 25 °C, triplicate; read-out: IC50 (µM) ± SD hCA IX
# Experimental: (§1) The software used to calculate CA IC50 along with statistical analysis of the results is GraphPad Prism 9.00. Results were estimated by using one-way ANOVA and the Bonferroni’s multiple comparisons posthoc test was performed (P < 0.05) [46]
# Carbonic anhydrase inhibitory activity:
# (§2) The spectrophotometric assay was conducted in HEPES-Tris buffer, NaCl of pH 7.5 (20mM) at 25◦C. Each inhibitory well-consisted of 50 μL of assay buffer solution, 20 μL of hCA enzyme solution (20 ng/μL in Assay Buffer), and 50 μL of test compound in HPLC grade DMSO (maintain 10% of the final concentration). The mixture solution was
# (§3) Substrate p-nitrophenyl acetate (p-NPA) (0.7mM) was prepared in HPLC grade methanol and the reaction was started by adding 20 μL to a well in a 96-well-plate. The amount of product formed was measured for 30 min continuously at 1 min intervals at 400 nm in a 96-well-plate using xMARK microplate spectrophotometer, Bio-Rad (USA). The activity of the controlled compound was taken as 100%. All experiments were carried out in triplicates of each used concentration, and results are represented as a
# TK-10 = test: NCI-60 one-dose SRB screen (Renal Cancer); type: cell-based; details: Homo sapiens, single dose 10 µM, 48 h, read-out: Growth inhibition percent (GI %)
# RXF 393 = test: NCI-60 one-dose SRB screen (Renal Cancer); type: cell-based; details: Homo sapiens, single dose 10 µM, 48 h, read-out: Growth inhibition percent (GI %)
# A498 = test: NCI-60 one-dose SRB screen (Renal Cancer); type: cell-based; details: Homo sapiens, single dose 10 µM, 48 h, read-out: Growth inhibition percent (GI %)
# SN12C = test: NCI-60 one-dose SRB screen (Renal Cancer); type: cell-based; details: Homo sapiens, single dose 10 µM, 48 h, read-out: Growth inhibition percent (GI %)
# ACHN = test: NCI-60 one-dose SRB screen (Renal Cancer); type: cell-based; details: Homo sapiens, single dose 10 µM, 48 h, read-out: Growth inhibition percent (GI %)
# UO-31 = test: NCI-60 one-dose SRB screen (Renal Cancer); type: cell-based; details: Homo sapiens, single dose 10 µM, 48 h, read-out: Growth inhibition percent (GI %)
# CAKI-1 = test: NCI-60 one-dose SRB screen (Renal Cancer); type: cell-based; details: Homo sapiens, single dose 10 µM, 48 h, read-out: Growth inhibition percent (GI %)
# 786-0 = test: NCI-60 one-dose SRB screen (Renal Cancer); type: cell-based; details: Homo sapiens, single dose 10 µM, 48 h, read-out: Growth inhibition percent (GI %)
# COLO 205 = test: NCI-60 one-dose SRB screen (Colon Cancer); type: cell-based; details: Homo sapiens, single dose 10 µM, 48 h, read-out: Growth inhibition percent (GI %)
# HCC-2998 = test: NCI-60 one-dose SRB screen (Colon Cancer); type: cell-based; details: Homo sapiens, single dose 10 µM, 48 h, read-out: Growth inhibition percent (GI %)
# HT29 = test: NCI-60 one-dose SRB screen (Colon Cancer); type: cell-based; details: Homo sapiens, HT-29, single dose 10 µM, 48 h, read-out: Growth inhibition percent (GI %)
# SW-620 = test: NCI-60 one-dose SRB screen (Colon Cancer); type: cell-based; details: Homo sapiens, single dose 10 µM, 48 h, read-out: Growth inhibition percent (GI %)
# HCT-15 = test: NCI-60 one-dose SRB screen (Colon Cancer); type: cell-based; details: Homo sapiens, single dose 10 µM, 48 h, read-out: Growth inhibition percent (GI %)
# KM12 = test: NCI-60 one-dose SRB screen (Colon Cancer); type: cell-based; details: Homo sapiens, single dose 10 µM, 48 h, read-out: Growth inhibition percent (GI %)
# HCT-116 = test: NCI-60 one-dose SRB screen (Colon Cancer); type: cell-based; details: Homo sapiens, single dose 10 µM, 48 h, read-out: Growth inhibition percent (GI %)
# NCI-H23 = test: NCI-60 one-dose SRB screen (Non-Small Cell Lung Cancer); type: cell-based; details: Homo sapiens, single dose 10 µM, 48 h, read-out: Growth inhibition percent (GI %)
# NCI-H522 = test: as above; type: cell-based; details: Homo sapiens, single dose 10 µM, 48 h, read-out: Growth inhibition percent (GI %)
# NCI-H226 = test: as above; type: cell-based; details: Homo sapiens, single dose 10 µM, 48 h, read-out: Growth inhibition percent (GI %)
# A549/ATCC = test: as above; type: cell-based; details: Homo sapiens, single dose 10 µM, 48 h, read-out: Growth inhibition percent (GI %)
# NCI-H460 = test: as above; type: cell-based; details: Homo sapiens, single dose 10 µM, 48 h, read-out: Growth inhibition percent (GI %)
# NCI-H322M = test: as above; type: cell-based; details: Homo sapiens, single dose 10 µM, 48 h, read-out: Growth inhibition percent (GI %)
# EKVX = test: as above; type: cell-based; details: Homo sapiens, single dose 10 µM, 48 h, read-out: Growth inhibition percent (GI %)
# HOP-92 = test: as above; type: cell-based; details: Homo sapiens, single dose 10 µM, 48 h, read-out: Growth inhibition percent (GI %)
# HOP-62 = test: as above; type: cell-based; details: Homo sapiens, single dose 10 µM, 48 h, read-out: Growth inhibition percent (GI %)
# SNB-75 = test: NCI-60 one-dose SRB screen (CNS Cancer); type: cell-based; details: Homo sapiens, single dose 10 µM, 48 h, read-out: Growth inhibition percent (GI %)
# SF-268 = test: NCI-60 one-dose SRB screen (CNS Cancer); type: cell-based; details: Homo sapiens, single dose 10 µM, 48 h, read-out: Growth inhibition percent (GI %)
# SF-539 = test: NCI-60 one-dose SRB screen (CNS Cancer); type: cell-based; details: Homo sapiens, single dose 10 µM, 48 h, read-out: Growth inhibition percent (GI %)
# SNB-19 = test: NCI-60 one-dose SRB screen (CNS Cancer); type: cell-based; details: Homo sapiens, single dose 10 µM, 48 h, read-out: Growth inhibition percent (GI %)
# U251 = test: NCI-60 one-dose SRB screen (CNS Cancer); type: cell-based; details: Homo sapiens, U-251, single dose 10 µM, 48 h, read-out: Growth inhibition percent (GI %)
# SF-295 = test: NCI-60 one-dose SRB screen (CNS Cancer); type: cell-based; details: Homo sapiens, single dose 10 µM, 48 h, read-out: Growth inhibition percent (GI %)
# hCA XII = hCA XII (Homo sapiens, UniProt O43570); test: CA inhibitory activity, spectrophotometric p-NPA assay; type: biochemical; details: p-NPA substrate, pH 7.5, 25 °C, triplicate; read-out: IC50 (µM) ± SD hCA XII
# Experimental: as §1
# Carbonic anhydrase inhibitory activity:
# as §2, §3
# RPMI-8226 = test: NCI-60 one-dose SRB screen (Leukemia); type: cell-based; details: Homo sapiens, single dose 10 µM, 48 h, read-out: Growth inhibition percent (GI %)
# MOLT-4 = test: NCI-60 one-dose SRB screen (Leukemia); type: cell-based; details: Homo sapiens, single dose 10 µM, 48 h, read-out: Growth inhibition percent (GI %)
# CCRF-CEM = test: NCI-60 one-dose SRB screen (Leukemia); type: cell-based; details: Homo sapiens, single dose 10 µM, 48 h, read-out: Growth inhibition percent (GI %)
# SR = test: NCI-60 one-dose SRB screen (Leukemia); type: cell-based; details: Homo sapiens, single dose 10 µM, 48 h, read-out: Growth inhibition percent (GI %)
# K-562 = test: NCI-60 one-dose SRB screen (Leukemia); type: cell-based; details: Homo sapiens, K562, single dose 10 µM, 48 h, read-out: Growth inhibition percent (GI %)
# HL-60(TB) = test: NCI-60 one-dose SRB screen (Leukemia); type: cell-based; details: Homo sapiens, single dose 10 µM, 48 h, read-out: Growth inhibition percent (GI %)
# Chain of hCA XII (O43570 25-354): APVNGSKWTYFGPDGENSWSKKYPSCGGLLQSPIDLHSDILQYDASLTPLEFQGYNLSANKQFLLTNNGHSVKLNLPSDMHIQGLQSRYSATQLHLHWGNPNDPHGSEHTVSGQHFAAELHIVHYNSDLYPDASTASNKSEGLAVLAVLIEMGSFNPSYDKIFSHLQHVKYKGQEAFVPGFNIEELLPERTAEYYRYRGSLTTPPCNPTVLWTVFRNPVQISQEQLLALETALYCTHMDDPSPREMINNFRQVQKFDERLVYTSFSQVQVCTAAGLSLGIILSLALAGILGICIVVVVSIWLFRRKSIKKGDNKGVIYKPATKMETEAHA
smiles,measurement,setting,value
"Cc1ccc(-c2nn(-c3ccc(S(N)(=O)=O)cc3)cc2C(=O)OCC(=O)Nc2nnc(S(N)(=O)=O)s2)cc1 [Compound 6b, 2-Oxo-2-[(5-sulfamoyl-1,3,4-thiadiazol-2-yl)amino] ethyl 1-(4-sulfamoylphenyl)-3-(p-tolyl)-1H-pyrazole-4-carboxylate]",inhibition at 10 µM,MDA-MB-435,5.8%
same,inhibition at 10 µM,M14,< 5%
same,inhibition at 10 µM,SK-MEL-5,23%
same,inhibition at 10 µM,SK-MEL-2,< 5%
same,inhibition at 10 µM,UACC-257,< 5%
same,inhibition at 10 µM,SK-MEL-28,< 5%
same,inhibition at 10 µM,MALME-3M,10.9%
same,inhibition at 10 µM,UACC-62,14.4%
same,IC50,hCA IX,0.339 ± 0.016 µM
same,inhibition at 10 µM,TK-10,< 5%
same,inhibition at 10 µM,RXF 393,< 5%
same,inhibition at 10 µM,A498,7.37%
same,inhibition at 10 µM,SN12C,< 5%
same,inhibition at 10 µM,ACHN,< 5%
same,inhibition at 10 µM,UO-31,10.8%
same,inhibition at 10 µM,CAKI-1,28%
same,inhibition at 10 µM,786-0,5.95%
same,inhibition at 10 µM,COLO 205,< 5%
same,inhibition at 10 µM,HCC-2998,< 5%
same,inhibition at 10 µM,HT29,< 5%
same,inhibition at 10 µM,SW-620,< 5%
same,inhibition at 10 µM,HCT-15,< 5%
same,inhibition at 10 µM,KM12,< 5%
same,inhibition at 10 µM,HCT-116,< 5%
same,inhibition at 10 µM,NCI-H23,9.63%
same,inhibition at 10 µM,NCI-H522,< 5%
same,inhibition at 10 µM,NCI-H226,13.3%
same,inhibition at 10 µM,A549/ATCC,< 5%
same,inhibition at 10 µM,NCI-H460,< 5%
same,inhibition at 10 µM,NCI-H322M,< 5%
same,inhibition at 10 µM,EKVX,7.25%
same,inhibition at 10 µM,HOP-92,22.2%
same,inhibition at 10 µM,HOP-62,< 5%
same,inhibition at 10 µM,SNB-75,23.9%
same,inhibition at 10 µM,SF-268,9.87%
same,inhibition at 10 µM,SF-539,7.75%
same,inhibition at 10 µM,SNB-19,5.72%
same,inhibition at 10 µM,U251,< 5%
same,inhibition at 10 µM,SF-295,< 5%
same,IC50,hCA XII,1.7 ± 0.064 µM
same,melting point,,115 to 120 °C
same,inhibition at 10 µM,RPMI-8226,< 5%
same,inhibition at 10 µM,MOLT-4,7.13%
same,inhibition at 10 µM,CCRF-CEM,6.03%
same,inhibition at 10 µM,SR,15.7%
same,inhibition at 10 µM,K-562,16.7%
same,inhibition at 10 µM,HL-60(TB),< 5%
